Patent publication US7417045B2, “Heterocyclic substituted pyridine or phenyl compounds with CXCR3 antagonist activity” (Schering Corporation, priority 2005, dated 2008)

What follows are compounds tested against T1, human CXCR3 (N-delta 4) (Homo sapiens, UniProt P49682) (assay: Human CXCR3 (N-delta 4) Scintillation Proximity Assay (SPA), [125I] IP-10 binding). Details: IC50 rating; [125I] IP-10 displacement, Ba/F3-hCXCR3 (N-delta 4) membranes.
T1 construct: CD8 leader (N); Flag tag; expressed in transfected cells; membranes
T1 sequence (P49682 5-368 limits assumed): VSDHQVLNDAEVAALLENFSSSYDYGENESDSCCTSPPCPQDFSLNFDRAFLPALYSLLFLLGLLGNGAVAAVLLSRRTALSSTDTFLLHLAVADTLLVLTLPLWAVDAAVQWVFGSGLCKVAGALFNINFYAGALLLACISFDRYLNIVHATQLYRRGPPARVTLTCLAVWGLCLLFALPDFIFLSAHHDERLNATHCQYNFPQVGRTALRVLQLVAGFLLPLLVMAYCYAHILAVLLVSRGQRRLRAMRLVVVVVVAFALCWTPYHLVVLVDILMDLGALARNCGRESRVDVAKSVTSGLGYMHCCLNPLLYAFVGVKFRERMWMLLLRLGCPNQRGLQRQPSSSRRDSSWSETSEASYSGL
From the text: The inventive compounds can readily be evaluated to determine activity at The CXCR3 receptors by known methods, such as, for example, Development of Human CXCR3 (N-delta 4) Binding Assay.
Cloning and Expression of Human CXCR3 (N-Delta 4):
The DNA encoding human CXCR3 was cloned by PCR using human genomic DNA (Promega, Madison, Wis.) as a template. The PCR primers were designed based on the published sequence of human orphan receptor GPR9 (1) with incorporated restriction sites, a Kozak consensus sequence, CD8 leader and Flag tag. The PCR product was subcloned into the mammalian expression vector pME18Sneo, a derivative of the SR-alpha expression vector (designated as pME18Sneo-hCXCR3 (N-delta 4).
IL-3-dependent mouse pro-B cells Ba/F3 were transfected by electroporation in 0.4 ml Dulbecco's PBS containing 4×10^6 cells with 20 μg of pME18Sneo-hCXCR3 (N-delta 4) plasmid DNA. Cells were pulsed at 400 Volts, 100 OHMs, 960 μFd. The transfected cells were under selection with 1 mg/ml G418 (Life Technologies, Gaithersburg, Md.). G418-resistant Ba/F3 clones were screened for CXCR3 expression by specific binding of [^125I] IP-10 (NEN Life Science Products, Boston, Mass.).
Preparation of Ba/F3-hCXCR3 (N-Delta 4) Membranes
Ba/F3 cells expressing human CXCR3 (N-delta 4) were pelleted and resuspended in the lysis buffer containing 10 mM HEPES, pH 7.5 and Complete® protease inhibitors (1 tablet per 100 ml) (Boehringer Mannheim, Indianapolis, Ind.) at a cell density of 20×10^6 cells per ml. After 5 minutes incubation on ice, cells were transferred to 4639 cell disruption bomb (Parr Instrument, Moline, Ill.) and applied with 1,500 psi of nitrogen for 30 minutes on ice. Large cellular debris was removed by centrifugation at 1,000× g. Cell membrane in the supernatant was sedimented at 100,000× g. The membrane was resuspended in the lysis buffer supplemented with 10% sucrose and stored at −80° C. Total protein concentration of the membrane was determined by BCA method from Pierce (Rockford, Ill.).
Human CXCR3 (N-Delta 4) Scintillation Proximity Assay (SPA)
For each assay point, 2 μg of membrane was preincubated for 1 hr with 300 μg wheat germ agglutinin (WGA) coated SPA beads (Amersham, Arlington Heights, Ill.) in the binding buffer (50 mM HEPES, 1 mM CaCl2, 5 mM MgCl2, 125 mM NaCl, 0.002% NaN3, 1.0% BSA) at room temperature. The beads were spun down, washed once, resuspended in the binding buffer and transferred to a 96-well Isoplate (Wallac, Gaithersburg, Md.). 25 pM of [^125I] IP-10 with tested compounds in a series of titration were added to start the reaction. After 3 hr reaction at room temperature, the amount of [^125I] IP-10 bound to the SPA beads was determined with a Wallac 1450 Microbeta counter.

| SMILES | IC50 [nM] |
| --- | --- |
| CC[C@H]1CN(c2ncc(C3=NCCN3)cc2Cl)CCN1C1CCN(Cc2ccc(C#CC(C)(C)O)cc2)CC1 [Compound 54] | < 25 |
| CC[C@H]1CN(c2ncc(-c3ncc[nH]3)cc2Cl)CCN1C1CCN([C@@H](C(=O)NCC2CC2)c2ccc(Cl)cc2)CC1 [Compound 107] | 25 to 100 |
| CC[C@H]1CN(c2ncc(-c3cnc(N)s3)cc2Cl)CCN1C1CCN(C(=O)c2ccc(Cl)cc2)CC1 [Compound 167] | > 100 |
| CC[C@H]1CN(c2ncc(-c3ncc[nH]3)cc2Cl)CCN1C1CCN(C(=O)c2ccc(-c3cnco3)cc2)CC1 [Compound 117] | 25 to 100 |
| CC[C@H]1CN(c2ncc(C3=NCCN3)cc2Cl)CCN1C1CCN(C(C(=O)OC)c2ccc(Cl)cc2)CC1 (some centres unmarked) [Compound 63] | < 25 |
| CC[C@H]1CN(c2ncc(-c3ncc[nH]3)cc2Cl)CCN1C1CCN(C(=O)c2ccc(-n3cncn3)nc2)CC1 [Compound 112] | 25 to 100 |
| CC[C@H]1CN(c2ncc(-c3ncc[nH]3)cc2Cl)CCN1C1CCN(C(=O)c2ccc(Cl)cc2I)CC1 [Compound 86] | < 25 |
| CC[C@H]1CN(c2ncc(-c3ncc[nH]3)cc2Cl)CCN1C1CCN(Cc2ccc(Cl)cc2C(=O)NC)CC1 [Compound 53] | < 25 |
| CC[C@H]1CN(c2ncc(-c3ncc[nH]3)cc2Cl)CCN1C1CCN(Cc2c(F)cc(F)cc2F)CC1 [Compound 49] | < 25 |
| CC[C@H]1CN(c2ncc(-c3ncc[nH]3)cc2Cl)CCN1C1CCN(Cc2ccc(-c3ccccc3)cc2)CC1 [Compound 37] | < 25 |
| CC[C@H]1CN(c2ncc(C3=NCCN3)cc2Cl)CCN1C1CCN(Cc2ccc(C3CC3CO)cc2)CC1 (some centres unmarked) [Compound 153] | > 100 |
| CC[C@H]1CN(c2ncc(-c3nnc(C(C)(C)OC(C)=O)o3)cc2Cl)CCN1C1CCN(Cc2ccc(Cl)cc2F)CC1 [Compound 141] | > 100 |
| CC[C@H]1CN(c2ncc(-c3noc(=O)[nH]3)cc2Cl)CCN1C1CCN(Cc2ccc(Cl)cc2F)CC1 [Compound 160] | > 100 |
| CC[C@H]1CN(c2ncc(-c3ncc[nH]3)cc2Cl)CCN1C1CCN([C@H](CO)c2ccc(Cl)cc2)CC1 [Compound 90] | < 25 |
| CC[C@H]1CN(c2ncc(-c3nnc(N)o3)cc2C(F)(F)F)[C@H](C)CN1C1CCN(Cc2ccc(OC(F)(F)F)cc2)CC1 [Compound 175] | < 25 |
| CC[C@H]1CN(c2ncc(C3=NCCN3)cc2Cl)CCN1C1CCN(C(=O)c2ccc(Br)cc2)CC1 [Compound 56] | < 25 |
| CC[C@H]1CN(c2ncc(-c3nnco3)cc2Cl)CCN1C1CCN(C(=O)c2ccc(Br)cc2)CC1 [Compound 129] | 25 to 100 |
| CC[C@H]1CN(c2ncc(-c3ncc[nH]3)cc2Cl)CCN1C1CCN([C@H](C)c2ccc(Cl)cc2)CC1 [Compound 5] | < 25 |
| CC[C@H]1CN(c2ncc(-c3ncc[nH]3)cc2Cl)CCN1C1CCN([C@@H](C(=O)OC)c2ccc(Br)cc2)CC1 [Compound 40] | < 25 |
| CC[C@H]1CN(c2ncc(-c3ncc[nH]3)cc2Cl)CCN1C1CCN(Cc2ccc(C#CC(C)(C)NS(=O)(=O)NC(=O)OC(C)(C)C)cc2)CC1 [Compound 143] | > 100 |
| CC[C@H]1CN(c2ncc(-c3ncc[nH]3)cc2Cl)CCN1C1CCN(Cc2ccc(C#CC(C)(C)C)cc2)CC1 [Compound 25] | < 25 |
| Fc1cc(Cl)ccc1CN1CCC(N2CCN(c3ncc(-c4ncc[nH]4)cc3Cl)CC2C2CC2)CC1 (centres unmarked) [Compound 77] | < 25 |
| CC[C@H]1CN(c2ncc(-c3ncc[nH]3)cc2Cl)CCN1C1CCN([C@@H](C(=O)N(C)C)c2ccc(Cl)cc2)CC1 [Compound 97] | < 25 |
| CC[C@H]1CN(c2ncc(-c3ncc[nH]3)cc2Cl)CCN1C1CCN(Cc2ccc(C#CC(C)(C)N)cc2)CC1 [Compound 134] | > 100 |
| CC[C@H]1CN(c2ncc(-c3ncc[nH]3)cc2Cl)CCN1C1CCN(C(=O)c2ccc(Cl)cc2N)CC1 [Compound 32] | < 25 |

| SMILES | IC50 [nM] |
| --- | --- |
| CC[C@H]1CN(c2ncc(-c3ncc[nH]3)cc2Cl)CCN1C1CCN(Cc2ccc(OC(F)(F)F)cc2)CC1 [Compound 13] | < 25 |
| CC[C@H]1CN(c2ncc(-c3ncc[nH]3)cc2Cl)CCN1C1CCN([C@@H](C(=O)NC)c2ccc(Cl)cc2)CC1 [Compound 66] | < 25 |
| C[C@H]1CN(c2ncc(-c3nc4ccccc4[nH]3)cc2Cl)CCN1C1CCN(Cc2ccc(Cl)cc2)CC1 [Compound 110] | 25 to 100 |
| CC[C@H]1CN(c2ncc(-c3nnc(CO)o3)cc2Cl)CCN1C1CCN(Cc2ccc(Cl)cc2F)CC1 [Compound 106] | 25 to 100 |
| CCOC(=O)C1CC1c1ccc(CN2CCC(N3CCN(c4ncc(C5=NCCN5)cc4Cl)C[C@@H]3CC)CC2)cc1 (some centres unmarked) [Compound 75] | < 25 |
| CC[C@H]1CN(c2ncc(-c3ncc[nH]3)cc2Cl)CCN1C1CCN(Cc2ccc(Cl)cc2-c2nnn[nH]2)CC1 [Compound 52] | < 25 |
| CC[C@H]1CN(c2ncc(C3=NCCN3)cc2Cl)CCN1C1CCN(C(=O)c2ccc(Cl)cc2C#N)CC1 [Compound 82] | < 25 |
| CC[C@H]1CN(c2ncc(-c3ncc[nH]3)cc2Cl)CCN1C1CCN(Cc2ccc(Cl)cc2C(C)(C)O)CC1 [Compound 31] | < 25 |
| CC[C@H]1CN(c2ncc(C3NC(=O)NC3=O)cc2Cl)CCN1C1CCN(Cc2ccc(Cl)cc2)CC1 (some centres unmarked) [Compound 119] | 25 to 100 |
| CC[C@H]1CN(c2ncc(C3=NCCN3C(=O)c3ccc(Cl)cc3)cc2Cl)CCN1C1CCN(C(=O)c2ccc(Cl)cc2)CC1 [Compound 146] | > 100 |
| CC[C@H]1CN(c2ncc(C3=NC(C)CN3)cc2Cl)CCN1C1CCN(C(=O)c2ccc(Cl)cc2)CC1 (some centres unmarked) [Compound 72] | < 25 |
| CC[C@H]1CN(c2ncc(-c3ncc[nH]3)cc2Cl)CCN1C1CCN(Cc2ccc(C(=O)OC)cc2)CC1 [Compound 16] | < 25 |
| CC[C@H]1CN(c2ncc(-c3ncc[nH]3)cc2Cl)CCN1C1CCN(Cc2ccc(C#N)cc2)CC1 [Compound 17] | < 25 |
| CC[C@H]1CN(c2ncc(-c3ncc[nH]3)cc2Cl)CCN1C1CCN(C(=O)c2ccc(Br)cc2)CC1 [Compound 41] | < 25 |
| CC[C@H]1CN(c2ncc(-c3nnc(C)o3)cc2Cl)CCN1C1CCN(Cc2ccc(Cl)cc2F)CC1 [Compound 70] | < 25 |
| CC[C@H]1CN(c2ncc(-c3ncc[nH]3)cc2Cl)CCN1C1CCN(C(=O)c2ccc(N3CCCC3=O)cc2)CC1 [Compound 173] | > 100 |
| C[C@@H]1CN(C2CCN(Cc3ccc(Cl)cc3F)CC2)[C@@H](C)CN1c1ncc(-c2ncc[nH]2)cc1Cl [Compound 79] | < 25 |
| CC[C@H]1CN(c2ncc(-c3ncc[nH]3)cc2Cl)CCN1C1CCN(CCCCc2ccc(Cl)cc2)CC1 [Compound 103] | 25 to 100 |
| CC[C@H]1CN(c2ncc(-c3ncc[nH]3)cc2Cl)CCN1C1CCN(Cc2ccc(-c3csnn3)cc2)CC1 [Compound 22] | < 25 |
| CC[C@H]1CN(c2ncc(C3=NCCN3)cc2Cl)CCN1C1CCN(C(CO)c2ccc(Cl)cc2)CC1 (some centres unmarked) [Compound 15] | < 25 |
| CC[C@H]1CN(c2ncc(-c3ncc[nH]3)cc2Cl)CCN1C1CCN(C(=O)c2ccc(C#N)cc2)CC1 [Compound 74] | < 25 |
| CC[C@H]1CN(c2ncc(-c3nc4cc(F)ccc4[nH]3)cc2Cl)CCN1C1CCN(Cc2ccc(Cl)cc2F)CC1 [Compound 96] | < 25 |
| CC[C@H]1CN(c2ncc(-c3ncc[nH]3)cc2Cl)CCN1C1CCN(C(=O)c2ccc(-n3c(C)ccc3C)cc2)CC1 [Compound 136] | > 100 |
| CC[C@H]1CN(c2ncc(-c3ncc[nH]3)cc2Cl)CCN1C1CCN([C@@H](C(=O)NCC(F)(F)F)c2ccc(Cl)cc2)CC1 [Compound 99] | < 25 |
| CC[C@H]1CN(c2ncc(C3=NCCN3)cc2Cl)CCN1C1CCN(C(=O)c2ccc(Cl)cc2)CC1 [Compound 58] | < 25 |
